Drawing on US6436943B1 (dated 2002), this text covers melting point for 25 molecules.

Each structure is given as a SMILES string.

In turn, `CCOC(=O)C1=C(C)NC(c2ccccn2)=NC1c1ccccc1` (stereo not shown) registered a melting point of 101 to 103 °C.
`COC(=O)C1=C(C)NC(c2ccccn2)=NC1c1ccccc1OC` (stereo not shown) had a melting point of 103 to 104 °C.
On to `COC(=O)C1=C(C)NC(c2ccccn2)=NC1c1ccccc1C` (stereo not shown), for which the melting point was in the range of 100 to 101 °C.
`COC(=O)C1=C(C)NC(c2ccccn2)=NC1c1ccc(C#N)cc1` (stereo not shown): the melting point lay in the range of 141 to 143 °C.
`CCOC(=O)C1=C(C)NC(c2ccncc2)=NC1c1ccccc1Cl` (stereo not shown) returned a melting point of 101 to 103 °C.
For `COC(=O)C1=C(C)NC(c2ccccn2)=NC1c1ccc(F)cc1[N+](=O)[O-]` (stereo not shown) the value was 175 to 176 °C; for `COC(=O)C1=C(C)NC(c2ccccn2)=NC1c1ccsc1` (stereo not shown), 108 to 109 °C; for `CC1=C(C(=O)OC(C)C)C(c2ccccc2Cl)N=C(c2ccccn2)N1` (stereo not shown), 93 to 95 °C.
For the molecule `COC(=O)C1=C(C)NC(c2ccccn2)=NC1c1ccc(-n2ccnn2)cc1` (stereo not shown), the melting point lay within 149 to 150 °C.
`COC(=O)C1=C(C)NC(c2ccccn2)=NC1C1CCCCC1.Cl` (stereo not shown) had a melting point of 149 to 150 °C.
As to `COC(=O)C1=C(C)NC(c2ccccn2)=NC1c1cccc(Cl)c1Cl` (stereo not shown), the melting point lay within 125 to 127 °C.
Consider `COC(=O)C1=C(C)NC(c2ccccn2)=NC1c1cccc2sc(-c3ccccc3)nc12` (stereo not shown), for which the melting point is 172 to 173 °C.
Consider `CCCCOC(=O)C1=C(C)NC(c2ccccn2)=NC1c1ccccc1Cl` (stereo not shown), for which the melting point was 176 to 178 °C.
The figure for `COC(=O)C1=C(C)NC(c2cccnc2)=NC1c1ccccc1Cl` (stereo not shown) is 131 to 133 °C; for `COC(=O)C1=C(C)NC(c2ccccn2)=NC1c1cc([N+](=O)[O-])ccc1Cl` (stereo not shown) it is 151 to 153 °C.
With `COC(=O)C1=C(C)NC(c2ccccn2)=NC1c1ccccc1[N+](=O)[O-]` (stereo not shown), the melting point lay within 167 to 168 °C.
Consider `COC(=O)C1=C(C)NC(c2ccccn2)=NC1c1ccc(Cl)cc1` (stereo not shown), for which the melting point lay within 201 to 202 °C.
For `COOCC1=C(C)NC(c2ccccn2)=NC1c1cccc(Cl)c1` (stereo not shown), the melting point lay within 122 to 123 °C.
The figure for `COOCC1=C(C)NC(c2ccccn2)=NC1c1cccc([N+](=O)[O-])c1` (stereo not shown) is 179 to 180 °C; for `CC1=C(C(=O)OCCC#N)C(c2ccccc2Cl)N=C(c2ccccn2)N1` (stereo not shown) it is 138 to 139 °C.
In the case of `COC(=O)C1=C(C)NC(c2ccccn2)=NC1c1ccccc1F` (stereo not shown), the melting point lay within 217 to 218 °C.
`COOCC1=C(C)NC(c2ccccn2)=NC1c1ccco1` (stereo not shown): the melting point fell in the range of 122 to 124 °C.
In turn, `CCCOOCC1=C(C)NC(c2ccccn2)=NC1c1ccccc1Cl` (stereo not shown) yielded a melting point of 105 to 110 °C.
Regarding `COOCC1=C(C)NC(c2ccccn2)=NC1c1ccccc1O` (stereo not shown), the melting point fell in the range of 131 to 132 °C.
Take `COC(=O)C1=C(C)NC(c2ccccn2)=NC1c1cccc2ncc(-c3ccccc3)cc12` (stereo not shown): the melting point was 176 to 177 °C.
